Data set [1] deals with Staphylococcus aureus. Kind of data set: Antibacterial activity against Staphylococcus aureus ATCC 29213 assessed as inhibition of bacterial growth incubated for 16 to 20 hrs by CLSI based microdilution method. The data set is classed as functional. The following applies: time 16-20 hrs. Background: Broth dilution looks for growth in wells or tubes with falling amounts of substance.

The next data set has as its system Enterococcus faecalis. Briefly: Antibacterial activity against Enterococcus faecalis ATCC 29212 assessed as inhibition of bacterial growth incubated for 16 to 20 hrs by CLSI based microdilution method. The data set is classed as functional. The following applies: time 16-20 hrs.
Data set [2] is described as follows: Hemolytic activity in sheep RBC incubated for 1 hr by absorbance based analysis. The conditions noted are these: sheep red blood cells. The data set is classed as toxicity, cell-based, Ovis aries, Erythrocyte.
A short description of data set [3]: Selectivity index, ratio of HC50 for hemolytic activity in sheep RBC to MIC for antibacterial activity against Staphylococcus aureus ATCC 29213. The following applies: sheep red blood cells. The data set is classed as toxicity.
Data set [4] relates to Staphylococcus aureus. Kind of data set: Bactericidal activity against Staphylococcus aureus ATCC 29213 at 4 to 8 times MIC measured for 24 hrs by time kill assay. The data set is classed as functional, organism-based.
Data set [5] has as its system Staphylococcus aureus. Kind of data set: Inhibition of biofilm formation in methicillin-resistant Staphylococcus aureus 15 assessed as destruction of formed biofilm at 128 ug/ml incubated for 24 hrs by crystal violet staining based analysis relative to control. The data set is classed as functional.
The subject of data set [6] is Cell membrane. Kind of data set: Induction of membrane depolarization in methicillin-resistant Staphylococcus aureus 15 assessed as increase in fluorescence intensity at 32 ug/ml by DiSC3-5 dye based fluorescence method. The data set is classed as subcellular. The following applies: dose 32.0 µg/ml.
Data set [7] can be described thus: Binding affinity to methicillin-resistant Staphylococcus aureus 15 phosphatidylglycerol assessed as dissociation constant by ITC method.
The nature of data set [8]: Binding affinity to methicillin-resistant Staphylococcus aureus 15 cardiolipin assessed as dissociation constant by ITC method.
Data set [9] deals with Cell membrane. Kind of data set: Induction of cell membrane disruption in methicillin-resistant Staphylococcus aureus 15 assessed as DNA leakage at 1 to 6 times MIC incubated for 1 to 2 hrs by microspectrophotometer. The conditions noted are these: time 1-2 hrs. The data set is classed as subcellular.
For data set [10], the system named is Staphylococcus aureus. Kind of data set: Upregulation of SPI gene expression in methicillin-resistant Staphylococcus aureus 15 assessed as log2 of fold change in gene expression at 8 ug/ml incubated for 6 hrs by transcriptome analysis. The data set is classed as functional. The following applies: dose 8 µg/ml.
The test system of data set [11] is Staphylococcus aureus. Kind of data set: Upregulation of rplJ gene expression in methicillin-resistant Staphylococcus aureus 15 assessed as log2 of fold change in gene expression at 8 ug/ml incubated for 6 hrs by transcriptome analysis. The data set is classed as functional. The conditions noted are these: dose 8 µg/ml.
The subject of data set [12] is Staphylococcus aureus. Kind of data set: Upregulation of YidC gene expression in methicillin-resistant Staphylococcus aureus 15 assessed as log2 of fold change in gene expression at 8 ug/ml incubated for 6 hrs by transcriptome analysis. The data set is classed as functional. The following applies: dose 8 µg/ml.
Data set [13] deals with Staphylococcus aureus. Kind of data set: Downregulation of pgaC gene expression in methicillin-resistant Staphylococcus aureus 15 assessed as fold change in gene expression at 8 ug/ml incubated for 6 hrs by transcriptome analysis. The data set is classed as functional. The following applies: dose 8 µg/ml.
The subject of data set [14] is L02. Briefly: Cytotoxicity against human L02 cells assessed as reduction in cell viability at 2.5 to 80 ug/ml incubated for 24 hrs by CCK-8 assay. The data set is classed as toxicity, cell-based. The conditions noted are these: l02, 24 h, dose 2.5-80 µg/ml. (Tetrazolium assays rely on reduction of a dye to a coloured formazan, in cell work by metabolically active cells.)

Data set [15] has as its system L02. Briefly: Cytotoxicity against human L02 cells assessed as effect on cell morphology at 2.5 to 80 ug/ml incubated for 24 hrs by Hoechst 33342 and propidium iodide staining based fluorescence microscopic analysis. The conditions noted are these: l02, 24 h, dose 2.5-80 µg/ml. The data set is classed as toxicity.
Data set [16] is described as follows: Toxicity in BALB/c mouse assessed as survival rate at 10 to 50 mg/kg, ip administered as single dose and measured for 7 consecutive days. The data set is classed as organism-based. The conditions noted are these: in vivo, dose 10-50 mg/kg, time 7 day.
The nature of data set [17]: Toxicity in BALB/c mouse assessed as effect on hematocrit level at 50 mg/kg, ip administered as single dose and measured after 24 hrs. The data set is classed as organism-based. The following applies: in vivo.
Data set [18] is described as follows: Toxicity in BALB/c mouse assessed as effect on mean corpuscular volume at 50 mg/kg, ip administered as single dose and measured after 24 hrs. The data set is classed as organism-based. The following applies: in vivo.
For data set [19], the system named is Staphylococcus aureus. Briefly: Antibacterial activity against methicillin-resistant Staphylococcus aureus 15 infected in BALB/c mouse sepsis model assessed as reduction in inflammatory factors in organs at 10 mg/kg, ip measured after 48 hrs by H & E staining based analysis. The data set is classed as functional, organism-based.
Data set [20] concerns Staphylococcus aureus. Kind of data set: Antibacterial activity against methicillin-resistant Staphylococcus aureus 15 infected in BALB/c mouse sepsis model assessed as normalization of cell morphology in spleen at 10 mg/kg, ip measured after 48 hrs by H & E staining based analysis. The data set is classed as functional, organism-based.
Data set [21] has as its system Staphylococcus aureus. Kind of data set: Antibacterial activity against methicillin-resistant Staphylococcus aureus 15 infected in BALB/c mouse sepsis model assessed as normalization of cell morphology in kidney at 10 mg/kg, ip measured after 48 hrs by H & E staining based analysis. The data set is classed as functional, organism-based.
Data set [22] concerns Staphylococcus aureus. Kind of data set: Antibacterial activity against methicillin-resistant Staphylococcus aureus 15 infected in BALB/c mouse sepsis model assessed as improvement in survival rate at 5 to 10 mg/kg, ip administered for 7 days. The data set is classed as functional, organism-based. The following applies: dose 5-10 mg/kg, time 7.0 day.

Calls of active or inactive are those of the source. The rule behind the calls is not given here.

By MIC is commonly meant the least concentration at which growth counts as inhibited. By HC50 is commonly meant the concentration giving 50% haemolysis. A higher HC50 goes with less damage to red cells. For orientation: inhibition means how much of the control response was suppressed. The term Kd denotes the free concentration of one partner at which half of the binding sites on the other are occupied at equilibrium, for simple one-to-one binding. With `C=CCc1cccc(Oc2ccc(C(=O)CC)cc2)c1OCCC[N+](C)(C)CC(=O)NCCCCCC.[Br-]`, the MIC with Staphylococcus aureus [1] and in the data set with Enterococcus faecalis was 2 µg/mL each time. The HC50 at 1 h in data set [2] worked out at 916 µg/mL. Further, in data set [3], the selectivity ratio came to 458. Also, the Activity entry in the data set with Staphylococcus aureus [4] was “Dose-Dependent Effect”; in the data set on L02 [14] it was “Non-Toxic”; in the data set on L02 [15], “Non-Toxic”; in data set [17], “Non-Toxic”; in [18], “Non-Toxic”. Moreover, in the data set with Staphylococcus aureus [5], the inhibition at 128 µg/mL was over 80%. In addition, the outcome in the data set on Cell membrane [6], with Cell membrane [9], in the data set with Staphylococcus aureus [19], in the data set with Staphylococcus aureus [20], with Staphylococcus aureus [21] and in the data set with Staphylococcus aureus [22] was Active. The figures for the Kd in [7] and in data set [8] were 3430 nM and 1330 nM, respectively. For the same compound, the log2FC in the data set on Staphylococcus aureus [10] is reported as 1.96; in the data set on Staphylococcus aureus [11], 1.8; in the data set with Staphylococcus aureus [12], 1.27; in the data set on Staphylococcus aureus [13] it was -2.8. For the same compound, the survival at 168 h in [16] came to 100%.
For the compound `C=CCc1cccc(Oc2ccc(C(=O)CC)cc2)c1OCC[N+](C)(C)CC(=O)NCCCCCC.[Br-]`, the MIC in the data set on Staphylococcus aureus [1] and in the data set on Enterococcus faecalis was 2 µg/mL each time. The same compound yielded an HC50 at 1 h in [2] of 1110 µg/mL. The selectivity ratio in [3] was found to be 556. In addition, the Activity entry in the data set on Staphylococcus aureus [4] was “Dose-Dependent Effect”; in the data set on L02 [14], “Non-Toxic”; in the data set on L02 [15] it was “Non-Toxic”; in [17] it was “Non-Toxic”; in data set [18] it was “Non-Toxic”. The inhibition at 128 µg/mL with Staphylococcus aureus [5] was over 80%. For the same compound, the outcome in the data set on Cell membrane [6], in the data set with Cell membrane [9], in the data set with Staphylococcus aureus [19], with Staphylococcus aureus [20], with Staphylococcus aureus [21] and in the data set on Staphylococcus aureus [22] was Active. For the same compound, the survival at 168 h in [16] came to 100%.

The values are drawn from ChEMBL document CHEMBL5236634, “Membrane-Targeting Neolignan-Antimicrobial Peptide Mimic Conjugates to Combat Methicillin-Resistant Staphylococcus aureus (MRSA) Infections” (J Med Chem, 2022).
